# Reference: patent US7879844B2, “Heterocyclic janus kinase 3 inhibitors” (Astellas Pharma Inc., priority 2005, dated 2011)
# Target: T1, human JAK3 kinase domain (Homo sapiens, UniProt P52333)
# T1 construct: attached to the N-terminal of the 796-1124 (C-terminal) fragment of the human JAK3 protein; His-tag (N); purchased Carna Biosciences, Inc. (Kobe, Japan); host or cells: baculovirus expression system
# Test: JAK3 inhibition test
# Assay type: biochemical
# Conditions: purified human JAK3 kinase domain; Biotin-Lyn-Substrate-2, 20 μM ATP in substrate solution; absorbance at 450 nm; read-out: IC50 (JAK3 inhibitory activity)
# Protocol: The JAK3 inhibition test was performed as described below according to the method of Okimoto et al.
# Purified human JAK3 kinase domain was purchased from Carna Biosciences, Inc. (Kobe, Japan). This is obtained as described below. His-tag (41 kDa) was attached to the N-terminal of the 796-1124 (C-terminal) fragment of the human JAK3 protein (accession number #NM_000215), expressed using baculovirus expression system, and then purified using Ni-NTA affinity column chromatography.
# After incubation at ambient temperature for one hour, the plate was washed with a cleaning buffer (50 mM Tris-HCl pH 7.5, 150 mM NaCl, 0.02% Tween 20), and a blocking buffer (a cleaning buffer containing 0.1% bovine serum albumin) was added to the plate. After incubation at ambient temperature for 30 minutes, the blocking buffer was removed, and an HRP-PY-20 solution (obtained by diluting HRP-PY-20 solution with the blocking buffer 500 times) was added. After incubation at ambient temperature for 30 minutes, the plate was washed four times, and a TMB substrate solution (Sigma) was added to the plate. After incubation at ambient temperature for four minutes, 1M sulfuric acid was added to stop the reaction. Enzyme activity was measured as absorbance at 450 nm. The efficacy of the test compound as a JAK3 inhibitor was expressed as an IC50 value.
# T1 sequence (P52333 796-1124): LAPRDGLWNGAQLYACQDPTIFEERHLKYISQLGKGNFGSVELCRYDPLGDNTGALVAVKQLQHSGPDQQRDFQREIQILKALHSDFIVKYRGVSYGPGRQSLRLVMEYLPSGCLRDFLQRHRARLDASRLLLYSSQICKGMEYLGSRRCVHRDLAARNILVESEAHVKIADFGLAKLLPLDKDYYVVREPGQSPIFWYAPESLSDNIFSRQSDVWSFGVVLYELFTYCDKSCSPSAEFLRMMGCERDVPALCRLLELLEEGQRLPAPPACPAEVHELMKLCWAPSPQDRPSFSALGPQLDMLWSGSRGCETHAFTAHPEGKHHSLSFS
row,IC50,Structure (SMILES)
1,0.86 nM,CO[C@H]1CC[C@H](NC(=O)C(=O)Nc2nn([C@H]3[C@@H]4CC5C[C@H]3C[C@@](O)(C5)C4)c3c2cnc2[nH]ccc23)CC1 [Example 434]
2,1.3 nM,N#CCCOC12CC3CC(C1)C(n1[nH]c(=O)c4cnc5[nH]ccc5c41)C(C3)C2 (centres unmarked) [Example 498]
3,0.31 nM,OCc1noc(-c2cnc3[nH]ccc3c2N[C@H]2C3CC4CC2C[C@@](O)(C4)C3)n1 [Example 484]
4,0.65 nM,N#CCCOC12CC3CC(C1)C(n1c(=O)[nH]c4cnc5[nH]ccc5c41)C(C3)C2 (centres unmarked) [Example 405]
5,0.33 nM,N#Cc1ccc(N2[C@@H]3CC[C@H]2C[C@H](Nc2c(C(N)=O)cnc4[nH]ccc24)C3)nn1 [Example 543]
6,2.3 nM,N#CC12CC3CC(C1)C(Nc1c(C(N)=O)cnc4[nH]cnc14)C(C3)C2 (centres unmarked) [Example 426]

# More lines, now with the values behind:
row,Structure (SMILES),IC50
1,CN(CC#N)C(=O)C12CC3CC(C1)C(n1c(=O)[nH]c4cnc5[nH]ccc5c41)C(C3)C2 (centres unmarked) [Example 384],0.28 nM
2,"O[C@]12CC3C[C@H](C1)[C@H](Nc1c(-c4nnco4)cnc4[nH]ccc14)[C@@H](C3)C2 (relative stereo) [Example 29, rel-(1s,3R,4R,5S)-4-{[5-(1,3,4-oxazole-2-yl)-1H-pyrrolo[2,3-b]pyridine-4-yl]amino}adamantan-1-ol]",2.3 nM
3,"CNC(=O)C(=O)Nc1nn([C@H]2[C@@H]3CC4C[C@H]2C[C@@](O)(C4)C3)c2c1cnc1[nH]ccc12 [Example 33, cis-N-{1-[(1R,2R,3S,5s)-5-hydroxyadamantan-2-yl]-1,6-dihydropyrazolo[3,4-d]pyrrolo[2,3-b]pyridine-3-yl}-N′-methylethanediamide]",2.1 nM
4,"COCCNC(=O)C(=O)Nc1nn([C@H]2C3CC4CC2C[C@@](O)(C4)C3)c2c1cnc1[nH]ccc12 [Example 32, cis-N-{1-[(1R,2R,3S,5s)-5-hydroxyadamantan-2-yl]-1,6-dihydropyrazolo[3,4-d]pyrrolo[2,3-b]pyridine-3-yl}-N′-(2-methoxyethyl)ethanediamide]",1.9 nM
5,O=C(CO)c1cnc2[nH]ccc2c1N[C@H]1C2CC3CC1C[C@@](O)(C3)C2 [Example 379],1.2 nM
6,"Nc1nnc(-c2cnc3[nH]ccc3c2N[C@H]2C3CC4CC2C[C@@](O)(C4)C3)s1 [Example 34, (1s,4r)-4-{[5-(5-amino-1,3,4-thiadiazole-2-yl)-1H-pyrrolo[2,3-b]pyridine-4-yl]amino}adamantan-1-ol]",0.17 nM
7,NC(=O)c1cnc2[nH]ccc2c1N[C@@H]1C[C@H]2CC[C@@H]1C2 [Example 133],4.4 nM
8,N#Cc1ccc(N2[C@@H]3CC[C@H]2C[C@H](Nc2c(C(N)=O)cnc4[nH]ccc24)C3)nc1 [Example 143],0.69 nM
